{
  "source": "PubChem BioAssay (NCI)",
  "test_in_all_cases": "inhibition of tumour cell growth, NCI panel, 48 h",
  "key": {"U251 CNS": {"system": "U251 CNS"}, "HT29 colon": {"system": "HT29 colon"}, "SF-539 CNS": {"system": "SF-539 CNS"}, "NCI/ADR-RES ovarian": {"system": "NCI/ADR-RES ovarian"}, "OVCAR-3 ovarian": {"system": "OVCAR-3 ovarian"}, "CCRF-CEM leukemia": {"system": "CCRF-CEM leukemia"}, "SK-MEL-2 melanoma": {"system": "SK-MEL-2 melanoma"}, "OVCAR-5 ovarian": {"system": "OVCAR-5 ovarian"}, "UO-31 renal": {"system": "UO-31 renal"}, "K-562 leukemia": {"system": "K-562 leukemia"}, "NCI-H23 lung": {"system": "NCI-H23 lung"}, "HOP-62 NSCLC": {"system": "HOP-62 NSCLC"}, "RXF 393 renal": {"system": "RXF 393 renal"}, "SK-MEL-28 melanoma": {"system": "SK-MEL-28 melanoma"}, "OVCAR-4 ovarian": {"system": "OVCAR-4 ovarian"}, "SNB-19 CNS": {"system": "SNB-19 CNS"}, "T-47D breast": {"system": "T-47D breast"}, "SK-OV-3 ovarian": {"system": "SK-OV-3 ovarian"}, "KM12 colon": {"system": "KM12 colon"}, "COLO 205 colon": {"system": "COLO 205 colon"}, "SR leukemia": {"system": "SR leukemia"}, "ACHN renal": {"system": "ACHN renal"}, "TK-10 renal": {"system": "TK-10 renal"}, "SF-268 CNS": {"system": "SF-268 CNS"}, "NCI-H460 lung": {"system": "NCI-H460 lung"}, "MCF7 breast": {"system": "MCF7 breast"}, "MOLT-4 leukemia": {"system": "MOLT-4 leukemia"}, "SNB-75 CNS": {"system": "SNB-75 CNS"}, "786-0 renal": {"system": "786-0 renal"}},
  "note": "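Where inhibition never reached the appropriate level, the endpoint shown equals the highest concentration tested. Otherwise, values were interpolated linearly from a five-concentration, 48-hour dose response in 96-well plates. The concentration for 50% growth inhibition is given as GI50. Definition used: TGI = concentration required for complete inhibition of growth.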",
  "data": [
    {"smiles": "O=C1NC(=N[C@@H](CO)c2ccccc2)S/C1=C\\c1ccc2ncccc2c1", "values": [
      {"measurement": "TGI", "setting": "U251 CNS", "result": "> 25", "unit": "µM"},
      {"measurement": "GI50", "setting": "HT29 colon", "result": 6.63, "unit": "µM"},
      {"measurement": "TGI", "setting": "HT29 colon", "result": "> 25", "unit": "µM"},
      {"measurement": "GI50", "setting": "SF-539 CNS", "result": 5.86, "unit": "µM"},
      {"measurement": "TGI", "setting": "SF-539 CNS", "result": 22, "unit": "µM"},
      {"measurement": "GI50", "setting": "NCI/ADR-RES ovarian", "result": "> 25", "unit": "µM"},
      {"measurement": "TGI", "setting": "NCI/ADR-RES ovarian", "result": "> 25", "unit": "µM"},
      {"measurement": "GI50", "setting": "OVCAR-3 ovarian", "result": 14.8, "unit": "µM"},
      {"measurement": "TGI", "setting": "OVCAR-3 ovarian", "result": "> 25", "unit": "µM"},
      {"measurement": "GI50", "setting": "CCRF-CEM leukemia", "result": 5.86, "unit": "µM"},
      {"measurement": "TGI", "setting": "CCRF-CEM leukemia", "result": 21.2, "unit": "µM"},
      {"measurement": "GI50", "setting": "SK-MEL-2 melanoma", "result": 4.73, "unit": "µM"},
      {"measurement": "TGI", "setting": "SK-MEL-2 melanoma", "result": 12.9, "unit": "µM"},
      {"measurement": "GI50", "setting": "OVCAR-5 ovarian", "result": "> 25", "unit": "µM"},
      {"measurement": "TGI", "setting": "OVCAR-5 ovarian", "result": "> 25", "unit": "µM"},
      {"measurement": "GI50", "setting": "UO-31 renal", "result": 4.53, "unit": "µM"},
      {"measurement": "TGI", "setting": "UO-31 renal", "result": "> 21.2", "unit": "µM"},
      {"measurement": "GI50", "setting": "K-562 leukemia", "result": 9.04, "unit": "µM"},
      {"measurement": "TGI", "setting": "K-562 leukemia", "result": "> 25", "unit": "µM"},
      {"measurement": "GI50", "setting": "NCI-H23 lung", "result": 8.92, "unit": "µM"},
      {"measurement": "TGI", "setting": "NCI-H23 lung", "result": "> 25", "unit": "µM"},
      {"measurement": "GI50", "setting": "HOP-62 NSCLC", "result": 12.7, "unit": "µM"},
      {"measurement": "TGI", "setting": "HOP-62 NSCLC", "result": "> 25", "unit": "µM"},
      {"measurement": "GI50", "setting": "RXF 393 renal", "result": 5.84, "unit": "µM"},
      {"measurement": "TGI", "setting": "RXF 393 renal", "result": "> 25", "unit": "µM"},
      {"measurement": "GI50", "setting": "SK-MEL-28 melanoma", "result": "> 20.2", "unit": "µM"},
      {"measurement": "TGI", "setting": "SK-MEL-28 melanoma", "result": "> 25", "unit": "µM"},
      {"measurement": "GI50", "setting": "OVCAR-4 ovarian", "result": 12.5, "unit": "µM"},
      {"measurement": "TGI", "setting": "OVCAR-4 ovarian", "result": "> 25", "unit": "µM"},
      {"measurement": "GI50", "setting": "SNB-19 CNS", "result": 24.2, "unit": "µM"},
      {"measurement": "TGI", "setting": "SNB-19 CNS", "result": "> 25", "unit": "µM"},
      {"measurement": "GI50", "setting": "T-47D breast", "result": 15.5, "unit": "µM"},
      {"measurement": "TGI", "setting": "T-47D breast", "result": "> 25", "unit": "µM"},
      {"measurement": "GI50", "setting": "SK-OV-3 ovarian", "result": 8.1, "unit": "µM"},
      {"measurement": "TGI", "setting": "SK-OV-3 ovarian", "result": "> 25", "unit": "µM"},
      {"measurement": "GI50", "setting": "KM12 colon", "result": 10.8, "unit": "µM"},
      {"measurement": "TGI", "setting": "KM12 colon", "result": "> 25", "unit": "µM"},
      {"measurement": "GI50", "setting": "COLO 205 colon", "result": 5.5, "unit": "µM"},
      {"measurement": "TGI", "setting": "COLO 205 colon", "result": 15.9, "unit": "µM"},
      {"measurement": "GI50", "setting": "SR leukemia", "result": 1.53, "unit": "µM"},
      {"measurement": "TGI", "setting": "SR leukemia", "result": 12.7, "unit": "µM"},
      {"measurement": "GI50", "setting": "ACHN renal", "result": 3.97, "unit": "µM"},
      {"measurement": "TGI", "setting": "ACHN renal", "result": "> 25", "unit": "µM"},
      {"measurement": "GI50", "setting": "TK-10 renal", "result": 4.92, "unit": "µM"},
      {"measurement": "TGI", "setting": "TK-10 renal", "result": "> 25", "unit": "µM"},
      {"measurement": "GI50", "setting": "SF-268 CNS", "result": 14.1, "unit": "µM"},
      {"measurement": "TGI", "setting": "SF-268 CNS", "result": "> 25", "unit": "µM"},
      {"measurement": "GI50", "setting": "NCI-H460 lung", "result": 7.75, "unit": "µM"},
      {"measurement": "TGI", "setting": "NCI-H460 lung", "result": "> 25", "unit": "µM"},
      {"measurement": "GI50", "setting": "MCF7 breast", "result": 8.38, "unit": "µM"},
      {"measurement": "TGI", "setting": "MCF7 breast", "result": "> 25", "unit": "µM"},
      {"measurement": "GI50", "setting": "MOLT-4 leukemia", "result": 9.19, "unit": "µM"},
      {"measurement": "TGI", "setting": "MOLT-4 leukemia", "result": "> 25", "unit": "µM"},
      {"measurement": "GI50", "setting": "SNB-75 CNS", "result": 3.64, "unit": "µM"},
      {"measurement": "TGI", "setting": "SNB-75 CNS", "result": "> 25", "unit": "µM"},
      {"measurement": "GI50", "setting": "786-0 renal", "result": "> 21.9", "unit": "µM"},
      {"measurement": "TGI", "setting": "786-0 renal", "result": "> 25", "unit": "µM"}
    ]}
  ]
}
